In patent US20110039824A1, “1,2,3,6-tetrahydroazepino[4,5-b]indole-5-carboxylate nuclear receptor inhibitors” (Wyeth, priority 2008, published 2011):
Counter-ions that a name gives are not always drawn.

Target: T1, Gal4/hFXR fusion protein (Homo sapiens, UniProt Q96RI1)
T1 sequence (Q96RI1 262-486 limits assumed): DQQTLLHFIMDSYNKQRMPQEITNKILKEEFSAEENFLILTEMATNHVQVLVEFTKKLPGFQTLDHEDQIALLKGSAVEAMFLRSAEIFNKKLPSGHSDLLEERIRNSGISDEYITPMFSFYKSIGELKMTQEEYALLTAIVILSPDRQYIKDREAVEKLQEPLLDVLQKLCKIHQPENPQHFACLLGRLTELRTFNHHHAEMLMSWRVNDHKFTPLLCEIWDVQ
Test: Gal4/hFXR fusion protein agonist activity in human 293 cells (luciferase)
Type: cell-based
Design: Potency Range; other: Gal4/FXR agonist potency in 293 cells
Conditions: Gal4/FXR agonist potency in 293 cells; table does not say whether hFXR or mFXR; read-out: Potency Range
Protocol: • Assay Medium: Phenol red free high glucose Dulbecco's modified Eagle's medium with sodium pyruvate (Cellgro, #17-205-CV) supplemented with 10% fetal bovine serum (Gibco, 16000-044), 1% glutamax (Gibco, 35050-061), 100 units/mL penicillin and 100 μg/mL streptomycin (Gibco, 15140-122). • Culturplate-96 (PerkinElmer, 6005688) • Lysis buffer (Promega, E3971) • Luciferase assay reagent (Promega E1483)
• 1. Compounds to be tested were prepared as 2× stocks in assay medium. • 2. […] The supernatant was removed and the cells were resuspended in 1 ml assay medium. The cells were counted and diluted in assay medium to 200,000 cells per ml. The cells were then plated at 10,000 cells per well in Culturplate-96 plates in 50 uL assay medium. The cells were incubated at 37° C. for approximately 1 hour. • 3. […] All assays included 1 uM GW4064 (Maloney et al., J. Med. Chem., 2000, 43(16), 2971-2974) as a reference standard. • 4. Cells were incubated for 24 hours at 37° C.
• 5. The medium was removed, and the cells were lysed in 25 uL lysis buffer (Promega, E3971). • 6. The plates were analyzed for luciferase activity with luciferase assay reagent (Promega E1483). Plates were read on Victor^3V instrument using the protocol “Shuguang Luciferase assay” (dispense volume=100 uL, plate type=“Packard Viewplate”, measurement height=8 mm from bottom of plate, 5 second read per well).
• 1. For agonist single point screening, data were analyzed in Excel. Each compound was tested in triplicate. • 2. For agonist potency determinations, statistical analysis of the data was performed using a customized Excel/SAS program. Dose response curves were generated using a four parameter (min, max, slope, and EC50 where EC50 is defined as the concentration which corresponds to midway between the estimated max and min) logistic model using log-transformed data (data was transformed on both sides with known lambda=0). • 3.

For `CC(C)OC(=O)C1=CN(C(=O)c2cccc(CN3C[C@@H](C)O[C@H](C)C3)c2)CC(C)(C)c2c1[nH]c1ccccc21` [Example 5, Isopropyl 3-(3-{[(2R,6R)-2,6-dimethylmorpholin-4-yl]methyl}benzoyl)-1,1-dimethyl-1,2,3,6-tetrahydroazepino[4,5-b]indole-5-carboxylate], which EC50 is on record?
Its EC50 is 100 to 500 nM.

Which EC50 does the source give for `CC(C)OC(=O)C1=CN(C(=O)c2cccc(CN3C[C@@H](C)O[C@@H](C)C3)c2)CC(C)(C)c2c1[nH]c1ccccc21` [Example 6, Isopropyl 3-(3-{[(2R,6S)-2,6-dimethylmorpholin-4-yl]methyl}benzoyl)-1,1-dimethyl-1,2,3,6-tetrahydroazepino[4,5-b]indole-5-carboxylate] here?
Its EC50 is 500 to 1000 nM.

Which EC50 does the source give for `CC(C)OC(=O)C1=CN(C(=O)c2cccc(CN3C[C@@H](C)N[C@@H](C)C3)c2)CC(C)(C)c2c1[nH]c1ccccc21` [Example 7, Isopropyl 3-(3-{[(3R,5S)-3,5-dimethylpiperazin-1-yl]methyl}benzoyl)-1,1-dimethyl-1,2,3,6-tetrahydroazepino[4,5-b]indole-5-carboxylate] here?
Its EC50 is 500 to 1000 nM.

Which EC50 does the source give for `CC(C)OC(=O)C1=CN(C(=O)c2cccc(CN3CCC(C(N)=O)CC3)c2)CC(C)(C)c2c1[nH]c1ccccc21` [Example 8, Isopropyl 3-{3-[(4-carbamoylpiperidin-1-yl)methyl]benzoyl}-1,1-dimethyl-1,2,3,6-tetrahydroazepino[4,5-b]indole-5-carboxylate] here?
The EC50 was 500 to 1000 nM.

`CC(C)OC(=O)C1=CN(C(=O)c2cccc(CN3CCC(N4CCOCC4)CC3)c2)CC(C)(C)c2c1[nH]c1ccccc21` [Example 9, Isopropyl 1,1-dimethyl-3-{3-[(4-morpholin-4-ylpiperidin-1-yl)methyl]benzoyl}-1,2,3,6-tetrahydroazepino[4,5-b]indole-5-carboxylate] was tested. Which EC50 did it give?
Its EC50 is 1000 to 10000 nM.

Which EC50 does the source give for `CC(C)OC(=O)C1=CN(C(=O)c2cccc(CN3CCSC3)c2)CC(C)(C)c2c1[nH]c1ccccc21` [Example 10, Isopropyl 1,1-dimethyl-3-[3-(1,3-thiazolidin-3-ylmethyl)benzoyl]-1,2,3,6-tetrahydroazepino[4,5-b]indole-5-carboxylate] here?
The EC50 was 100 to 500 nM.

With `CC(C)OC(=O)C1=CN(C(=O)c2cccc(CN3CCC(N4CCCCC4)CC3)c2)CC(C)(C)c2c1[nH]c1ccccc21` [Example 11, Isopropyl 3-[3-(1,4′-bipiperidin-1′-ylmethyl)benzoyl]-1,1-dimethyl-1,2,3,6-tetrahydroazepino[4,5-b]indole-5-carboxylate] as the compound, how does the EC50 read?
Its EC50 is 1000 to 10000 nM.

Which EC50 does the source give for `CC(C)OC(=O)C1=CN(C(=O)c2cccc(CN3CCC(N4CCCC4)CC3)c2)CC(C)(C)c2c1[nH]c1ccccc21` [Example 12, Isopropyl 1,1-dimethyl-3-{3-[(4-pyrrolidin-1-ylpiperidin-1-yl)methyl]benzoyl}-1,2,3,6-tetrahydroazepino[4,5-b]indole-5-carboxylate] here?
The EC50 was 1000 to 10000 nM.

With `CC(C)OC(=O)C1=CN(C(=O)c2cccc(CN3C[C@@H](C)C[C@H](C)C3)c2)CC(C)(C)c2c1[nH]c1ccccc21` [Example 13, Isopropyl 3-(3-{[(3S,5S)-3,5-dimethylpiperidin-1-yl]methyl}benzoyl)-1,1-dimethyl-1,2,3,6-tetrahydroazepino[4,5-b]indole-5-carboxylate] as the compound, how does the EC50 read?
Its EC50 is 100 to 500 nM.

Which EC50 does the source give for `CC(C)OC(=O)C1=CN(C(=O)c2cccc(CN3C[C@H](C)C[C@H](C)C3)c2)CC(C)(C)c2c1[nH]c1ccccc21` [Example 14, Isopropyl 3-(3-{[(R3R,5S)-3,5-dimethylpiperidin-1-yl]methyl}benzoyl)-1,1-dimethyl-1,2,3,6-tetrahydroazepino[4,5-b]indole-5-carboxylate] here?
Its EC50 is 1000 to 10000 nM.

`CC(C)OC(=O)C1=CN(C(=O)c2cccc(CN3CCSCC3)c2)CC(C)(C)c2c1[nH]c1ccccc21` [Example 15, Isopropyl 1,1-dimethyl-3-[3-(thiomorpholin-4-ylmethyl)benzoyl]-1,2,3,6-tetrahydroazepino[4,5-b]indole-5-carboxylate] was tested. Which EC50 did it give?
The EC50 was 100 to 500 nM.

How did the EC50 turn out when `CC(C)OC(=O)C1=CN(C(=O)c2cccc(CN3[C@@H](C)CC[C@@H]3C)c2)CC(C)(C)c2c1[nH]c1ccccc21` [Example 16, Isopropyl 3-(3-{[(2S,5S)-2,5-dimethylpyrrolidin-1-yl]methyl}benzoyl)-1,1-dimethyl-1,2,3,6-tetrahydroazepino[4,5-b]indole-5-carboxylate] was run?
The EC50 was 1000 to 10000 nM.

How did the EC50 turn out when `CC(C)OC(=O)C1=CN(C(=O)c2cccc(CNC3CCCCC3)c2)CC(C)(C)c2c1[nH]c1ccccc21` [Example 17, Isopropyl 3-{3-[(cyclohexylamino)methyl]benzoyl}-1,1-dimethyl-1,2,3,6-tetrahydroazepino[4,5-b]indole-5-carboxylate] was run?
The EC50 was 500 to 1000 nM.

Which EC50 does the source give for `CC(C)OC(=O)C1=CN(C(=O)c2cccc(CN(C)C3CCCCC3)c2)CC(C)(C)c2c1[nH]c1ccccc21` [Example 18, Isopropyl 3-(3-{[cyclohexyl(methyl)amino]methyl}benzoyl)-1,1-dimethyl-1,2,3,6-tetrahydroazepino[4,5-b]indole-5-carboxylate] here?
Its EC50 is 500 to 1000 nM.

How did the EC50 turn out when `CC(C)OC(=O)C1=CN(C(=O)c2cccc(CN3CCC(O)CC3)c2)CC(C)(C)c2c1[nH]c1ccccc21` [Example 19, Isopropyl 3-{3-[(4-hydroxypiperidin-1-yl)methyl]benzoyl}-1,1-dimethyl-1,2,3,6-tetrahydroazepino[4,5-b]indole-5-carboxylate] was run?
The EC50 was 500 to 1000 nM.

`CC(C)OC(=O)C1=CN(C(=O)c2cccc(CN3CCCC(C(N)=O)C3)c2)CC(C)(C)c2c1[nH]c1ccccc21` (stereo not drawn) [Example 20, isopropyl 3-{3-[(3-carbamoylpiperidin-1-yl)methyl]benzoyl}-1,1-dimethyl-1,2,3,6-tetrahydroazepino[4,5-b]indole-5-carboxylate] was tested. Which EC50 did it give?
Its EC50 is 500 to 1000 nM.

With `CC(C)OC(=O)C1=CN(C(=O)c2cccc(CN3CCS(=O)(=O)CC3)c2)CC(C)(C)c2c1[nH]c1ccccc21` [Example 21, Isopropyl 3-{3-[(1,1-dioxidothiomorpholin-4-yl)methyl]benzoyl}-1,1-dimethyl-1,2,3,6-tetrahydroazepino[4,5-b]indole-5-carboxylate] as the compound, how does the EC50 read?
Its EC50 is 500 to 1000 nM.

Which EC50 does the source give for `CC(C)OC(=O)C1=CN(C(=O)c2cccc(CNC3CCNCC3)c2)CC(C)(C)c2c1[nH]c1ccccc21` [Example 22, Isopropyl 1,1-dimethyl-3-{3-[(piperidin-4-ylamino)methyl]benzoyl}-1,2,3,6-tetrahydroazepino[4,5-b]indole-5-carboxylate dihydrochloride] here?
Its EC50 is 1000 to 10000 nM.
